Literature values as cited in publication PMC6931083 (Journal of Pharmaceutical Analysis, 2019).

Conditions: ref 6 (Hentz et al.)

Substance | Decrease in biological activity as compared to the native insulin | Biological activity compared to the native insulin
A1 conjugated FITC-insulin: literature (Hentz et al.) FITC-insulin conjugated at A1 | 10% | –
di-conjugated FITC-insulin: di-conjugated FITC-insulin at B1 and A1 (literature value, Hentz et al.) | 100% | –
mono-conjugated FITC-insulin (tagged at B1 position): literature (Hentz et al.) mono-conjugated FITC-insulin tagged at B1 position | – | same biological activity as the native insulin
